# Test system: production of TNF by monocytes activated with bacterial lipopolysaccharide (LPS)
# Experiment: Lipopolysaccharide-activated monocyte TNF production assay
# Type: cell-based
# Details: Homo sapiens; whole blood monocyte assay (LPS induced TNF release)
# Outline: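 Adherent human PBMC-derived monocytes preincubated 60 min with nine two-fold compound dilutions, then stimulated with E. coli K532 LPS (30 ng/mL in the added medium) for 4 h at 37 °C. Supernatant TNF measured by sandwich ELISA; IC50 is the compound concentration halving TNF production, from second-order polynomial fits.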
row,Compound,IC50 [µM]
1,"Cc1ccc(C(=O)NC2CC2)cc1-c1ccc2c(N3C[C@@H]4C[C@H]3CO4)nncc2c1 [Example 120, N-cyclopropyl-4-methyl-3-{1-[(1S,4S)-2-oxa-5-azabicyclo[2.2.1]hept-5-yl]phthalazin-6-yl}benzamide]",≤ 5
2,"CNC(=O)c1ccc(C)c(-c2ccc3c(N4CCOCC4)nncc3c2)c1 [Example 181, N,4-dimethyl-3-(1-morpholin-4-ylphthalazin-6-yl)benzamide]",≤ 5
3,"Cc1ccc(C(=O)NC2CC2)cc1-c1ccc2c(C3CCN(C)CC3)nncc2c1 [Example 150, N-cyclopropyl-4-methyl-3-[1-(1-methylpiperidin-4-yl)phthalazin-6-yl]benzamide]",≤ 5
4,"Cc1ccc(C(N)=O)cc1-c1ccc2c(Oc3cccnc3C)nncc2c1 [Example 300, 4-methyl-3-{1-[(2-methylpyridin-3-yl)oxy]phthalazin-6-yl}benzamide]",≤ 5
5,"COc1ccc(C(F)(F)F)cc1NC(=O)c1ccc(C)c(-c2ccc3c(N4CCOCC4)nncc3c2)c1 [Example 43, N-(2-methoxy-5-(trifluoromethyl)phenyl)-4-methyl-3-(1-morpholinophthalazin-6-yl)benzamide]",≤ 5
6,"Cc1ccc(C(N)=O)cc1-c1ccc2c(-c3ccc(S(C)(=O)=O)cc3)nncc2c1 [Example 214, 4-methyl-3-{1-[4-(methylsulfonyl)phenyl]phthalazin-6-yl}benzamide]",≤ 5
7,"Cc1ccc(C(=O)NC2CC2)cc1-c1ccc2c(N3CCN4CCC[C@H]4C3)nncc2c1 [Example 274, 3-{1-[(8aS)-hexahydropyrrolo[1,2-a]pyrazin-2(1H)-yl]phthalazin-6-yl}-N-cyclopropyl-4-methylbenzamide]",≤ 5
8,"Cc1ccc(C(N)=O)cc1-c1ccc2c(N3C[C@H](C)OC[C@@H]3C)nncc2c1 [Example 119, 3-{1-[(2S,5S)-2,5-dimethylmorpholin-4-yl]phthalazin-6-yl}-4-methylbenzamide]",≤ 5
9,"Cc1ccc(C(=O)NC2CC2)cc1-c1ccc2c(N3CCCCC3)nncc2c1 [Example 159, N-cyclopropyl-4-methyl-3-(1-piperidin-1-ylphthalazin-6-yl)benzamide]",≤ 5
10,"COc1ncncc1-c1nncc2cc(-c3cc(C(N)=O)ccc3C)ccc12 [Example 196, 3-[1-(4-methoxypyrimidin-5-yl)phthalazin-6-yl]-4-methylbenzamide]",≤ 5
11,"Cc1ccc(C(=O)NC2CC2)cc1-c1ccc2c(NC3CCCC3)nncc2c1 [Example 325, 3-[1-(cyclopentylamino)phthalazin-6-yl]-N-cyclopropyl-4-methylbenzamide]",≤ 5
12,"Cc1ccccc1-c1ccc2c(N3CCOCC3c3ccc(F)cc3)nncc2c1 (stereo not drawn) [Example 398, 1-[3-(4-fluorophenyl)morpholin-4-yl]-6-(2-methylphenyl)phthalazine]",≤ 5
13,"Fc1ccc(Oc2ccc3c(-c4ccccc4C(F)(F)F)nncc3c2)cc1 [Example 339, 6-(4-fluorophenoxy)-1-[2-(trifluoromethyl)phenyl]phthalazine]",≤ 5
14,"Cc1ccc(C(=O)NC2CC2)cc1-c1ccc2c(C(C)C)nncc2c1 [Example 13, N-Cyclopropyl-3-(1-isopropylphthalazin-6-yl)-4-methylbenzamide]",≤ 5
15,"Cc1ccc(C(=O)NC2CC2)cc1-c1ccc2c(N3C[C@@H](C)N[C@@H](C)C3)nncc2c1 [Example 148, N-cyclopropyl-3-{1-[(3R,5S)-3,5-dimethylpiperazin-1-yl]phthalazin-6-yl}-4-methylbenzamide]",≤ 5
16,"Cc1ccc(C(=O)NC2CC2)cc1-c1ccc2c(NC[C@H]3CCCO3)nncc2c1 [Example 297, N-cyclopropyl-4-methyl-3-(1-{[(2R)-tetrahydrofuran-2-ylmethyl]amino}phthalazin-6-yl)benzamide]",≤ 5
17,"Cc1ccc(C(N)=O)cc1-c1ccc2c(Oc3ccc(F)cc3)nncc2c1 [Example 301, 3-[1-(4-fluorophenoxy)phthalazin-6-yl]-4-methylbenzamide]",≤ 5
18,"Cc1ccc(C(=O)NC2CC2)cc1-c1ccc2c(NC(C)C)nncc2c1 [Example 172, N-cyclopropyl-3-[1-(isopropylamino)phthalazin-6-yl]-4-methylbenzamide]",≤ 5
19,"C[C@H]1COCCN1c1nncc2cc(-c3c(Cl)ccc4c(NC5CC5)noc34)ccc12 [Example 401, 6-chloro-N-cyclopropyl-7-{1-[(3S)-3-methylmorpholin-4-yl]phthalazin-6-yl}-1,2-benzisoxazol-3-amine]",≤ 5
20,"Cc1ccc(C(=O)NC2CC2)cc1-c1ccc2c(N3CCSCC3)nncc2c1 [Example 134, N-cyclopropyl-4-methyl-3-(1-thiomorpholin-4-ylphthalazin-6-yl)benzamide]",≤ 5
21,"Fc1ccc(Oc2ccc3c(-c4ccc(CN5CCOCC5)cc4)nncc3c2)cc1 [Example 333, 6-(4-fluorophenoxy)-1-[4-(morpholin-4-ylmethyl)phenyl]phthalazine]",≤ 5

row,Compound,IC50 [µM]
1,"Cc1ccc(-c2nncc3cc(-c4cc(C(N)=O)ccc4C)ccc23)c(Cl)c1 [Example 221, 3-[1-(2-chloro-4-methylphenyl)phthalazin-6-yl]-4-methylbenzamide]",≤ 5
2,"Cc1ccc2c(N)n[nH]c2c1-c1ccc2c(N3CCOC[C@@H]3C)nncc2c1 [Example 391, 6-methyl-7-{1-[(3S)-3-methylmorpholin-4-yl]phthalazin-6-yl}-1H-indazol-3-amine]",≤ 5
3,"COc1ccc(-c2nncc3cc(-c4cc(C(N)=O)ccc4C)ccc23)c(C)c1 [Example 202, 3-[1-(4-methoxy-2-methylphenyl)phthalazin-6-yl]-4-methylbenzamide]",≤ 5
4,"Cc1ccc(C(=O)NC2CC2)cc1-c1ccc2c(N3CCS(=O)(=O)CC3)nncc2c1 [Example 133, N-cyclopropyl-3-[1-(1,1-dioxidothiomorpholin-4-yl)phthalazin-6-yl]-4-methylbenzamide]",≤ 5
5,"Cc1ccc(C(=O)NC2CC2)cc1-c1ccc2c(O)nncc2c1 [Example 288, N-cyclopropyl-3-(1-hydroxyphthalazin-6-yl)-4-methylbenzamide]",≤ 5
6,"Cc1ccc(C(=O)NC2CC2)cc1-c1ccc2c(N3C[C@@H](C)N(CC(F)(F)F)C[C@@H]3C)nncc2c1 [Example 393, N-cyclopropyl-3-{1-[(2S,5R)-2,5-dimethyl-4-(2,2,2-trifluoroethyl)piperazin-1-yl]phthalazin-6-yl}-4-methylbenzamide]",≤ 5
7,"C[C@H]1COCCN1c1nncc2cc(-c3ccc(C(F)(F)F)c4c(NC(C)(C)C)noc34)ccc12 [Example 16, N-tert-butyl-7-(1-((S)-3-methylmorpholino)phthalazin-6-yl)-4-(trifluoromethyl)benzo[d]isoxazol-3-amine]",≤ 5
8,"CS(=O)(=O)c1ccc(-c2nncc3cc(Oc4ccc(F)cc4)ccc23)cc1 [Example 335, 6-(4-fluorophenoxy)-1-[4-(methylsulfonyl)phenyl]phthalazine]",≤ 5
9,"Cc1ccc(C(=O)NC2CC2)cc1-c1ccc2c(N3CCN(C(=O)NCc4ccc(F)cc4)CC3)nncc2c1 [Example 139, 4-(6-{5-[(cyclopropylamino)carbonyl]-2-methylphenyl}phthalazin-1-yl)-N-(4-fluorobenzyl)piperazine-1-carboxamide]",≤ 5
10,"Cc1ccc(C(=O)NC2CC2)cc1-c1ccc2c(-c3ccc(C(F)(F)F)cc3)nncc2c1 [Example 249, N-cyclopropyl-4-methyl-3-{1-[4-(trifluoromethyl)phenyl]phthalazin-6-yl}benzamide]",≤ 5
11,"Cc1ccc(C(=O)NC2CC2)cc1-c1ccc2c(N3CCCC[C@H]3C)nncc2c1 [Example 180, N-cyclopropyl-4-methyl-3-{1-[(2R)-2-methylpiperidin-1-yl]phthalazin-6-yl}benzamide]",≤ 5
12,"Cc1ccc(C(=O)NC2CC2)cc1-c1ccc2c(NC(C)c3ccccn3)nncc2c1 (stereo not drawn) [Example 369, N-cyclopropyl-4-methyl-3-{1-[(1-pyridin-2-ylethyl)amino]phthalazin-6-yl}benzamide]",≤ 5
13,"CC[C@@H](C)Oc1nncc2cc(-c3cc(C(=O)NC4CC4)ccc3C)ccc12 [Example 328, N-cyclopropyl-4-methyl-3-(1-{[(1R)-1-methylpropyl]oxy}phthalazin-6-yl)benzamide]",≤ 5
14,"Cc1ccc(C(N)=O)cc1-c1ccc2c(-c3ccc(Cl)cc3Cl)nncc2c1 [Example 223, 3-[1-(2,4-dichlorophenyl)phthalazin-6-yl]-4-methylbenzamide]",≤ 5
15,"Cc1ccc(C(N)=O)cc1-c1ccc2c(N(C)C)nncc2c1 [Example 281, 3-[1-(dimethylamino)phthalazin-6-yl]-4-methylbenzamide]",≤ 5
16,"Cc1cc(F)ccc1-c1nncc2cc(Oc3ccccc3)ccc12 [Example 347, 1-(4-fluoro-2-methylphenyl)-6-phenoxyphthalazine]",≤ 5
17,"CCNC(=O)c1ccc(C)c(-c2ccc3c(CC(C)C)nncc3c2)c1 [Example 361, N-ethyl-3-(1-isobutylphthalazin-6-yl)-4-methylbenzamide]",≤ 5
18,"Cc1ccc(C(N)=O)cc1-c1ccc2c(N3CCn4c(nnc4C(F)(F)F)C3)nncc2c1 [Example 294, 4-methyl-3-{1-[3-(trifluoromethyl)-5,6-dihydro[1,2,4]triazolo[4,3-a]pyrazin-7(8H)-yl]phthalazin-6-yl}benzamide]",≤ 5
19,"Cc1ccc(C(N)=O)cc1-c1ccc2c(-c3ccccc3C(F)(F)F)nncc2c1 [Example 220, 4-methyl-3-{1-[2-(trifluoromethyl)phenyl]phthalazin-6-yl}benzamide]",≤ 5
20,"CNc1noc2c(-c3ccc4c(N5CCOC[C@@H]5C)nncc4c3)c(Cl)ccc12 [Example 15, 6-chloro-N-methyl-7-(1-((S)-3-methylmorpholino)phthalazin-6-yl)benzo[d]isoxazol-3-amine]",≤ 5
21,"Cc1ccc(C(=O)NC2CC2)cc1-c1ccc2c(-c3ccncc3C)nncc2c1 [Example 263, N-cyclopropyl-4-methyl-3-[1-(3-methylpyridin-4-yl)phthalazin-6-yl]benzamide]",≤ 5

# From US7759337B2, “Phthalazine compounds and methods of use” (Amgen Inc., priority 2005, dated 2010)
